Test: in vivo
Settings: male, Wistar, rat, in vivo, po, 4 mg/kg
Protocol: For this study, 4 mg/kg folate was administered as a single dose to 250-300 g male Wistar rats. […] For each form of folate 4 time points of 30 min, 1 h, 2 h and 4 h were evaluated. For each time point 2 rats were used. The folate form dissolved in 0.5 ml buffered saline was administered orally using a blunt needle attached to a 1 ml syringe. The rats were euthanized by CO2 inhalation.
Blood was drawn cardiac puncture, allowed to clot for 30 min, serum separated, diluted in equal volume of 4% ascorbate pH 7.2 and kept frozen at −20 C. Folate forms in the serum was determined by HPLC and the peaks were quantified by comparing to known standards as described below.
Folate standards (5-MTHF, FA, THF and Formyl-THF) and 13C-labeled stable isotope internal standards (13C5-5-MTHF, 13C5-FA and 13C-Formyl-THF) were obtained from Schircks Laboratories (Switzerland). Formic acid, ascorbic acid and dithiothreitol (DTT) were obtained from Fluka and Optima LC-MS grade methanol from Fisher Scientific. Stock standards for each folate metabolite and internal standards were prepared as 1 mmol/L solutions in water containing 2 mg/mL ascorbic acid and stored at −80° C. Microtiter plates used for were purchased from NUNC.
Liquid chromatography electrospray ionization mass spectrometry (LC-ESI-MS/MS) analysis of plasma 5-MTHF, FA, THF, Formyl-THF was performed on a Sciex 5500QTRAP mass spectrometer (Foster City, Calif., USA) coupled with a Shimadzu ultra-high pressure Nexera chromatograph system (Kyoto, Japan). The MS/MS experiments were performed under positive electrospray ionization (+ESI) with multiple-reaction monitoring (MRM) using a Turbolon Spray electrospray source operating at a voltage of 5.5 kV and desolvation temperature of 500° C. The calibration curve was prepared in water containing 2 mg/mL ascorbic acid over a range of 12.5-400 nmol/L for each folate analyte.
Sample preparation involved combining 50 µl of blank, standard, control or sample with 10μ1 62.5 mM dithiothreitol, 20 mg/ml ascorbic acid and 2.5 μM 13C5-5-MTHF, 13C5-FA, 13C-Formyl-THF in 1.5 mL Eppendorf tubes, mixed by vortex and incubated for 10 minutes at room temperature in the dark. Next, samples were deproteinized with 5 volumes of methanol containing 2 mg/ml of ascorbic acid and vortexed and centrifuged at 14800 rpm for 10 minutes. Supernatant was loaded in a 96-well microtiter plate for analysis. The samples were analyzed following injection of 10 μL of extract on a Synergi Hydro 4μ 150×3 mm with a 4×2 mm SecurityGuard column (Phenomenex, Calif., USA) maintained at 40° C. (Phenomenex) and eluted in a gradient with buffer A (100% water with 0.1% formic acid) and buffer B (100% Methanol with 0.1% formic acid). The flow rate was 0.5 mL/min, with a gradient over a total run time of 6 min: 0.0-2.0 min, 0-100% B; 2.5 min, 100% B; 2.6-6.0 min, 0% B.
Total analytical analysis, including column re-equilibration, was 6 minutes. Eluent flow from the column was diverted to waste at the beginning and end of each run and was only directed to the source for the period from 1.5-3.5 minutes. The LC-MS/MS data was acquired and processed using Analyst 1.5.2 software (Sciex).
Values reported include both D- and L-forms.

concentration at 0.5 h: 42.4 ng/mL
concentration at 1 h: 236 ng/mL
concentration at 2 h: 134 ng/mL
concentration at 4 h: 121 ng/mL
5-MTHF (0.5 h): 72.8 ng/mL
THF (0.5 h): 10.7 ng/mL
Total Uptake (0.5 h): 126.0 ng/mL
5-MTHF (1 h): 112.9 ng/mL
THF (1 h): 5.9 ng/mL
Total Uptake (1 h): 354.3 ng/mL
5-MTHF (2 h): 101.4 ng/mL
THF (2 h): 7.9 ng/mL
Total Uptake (2 h): 243.3 ng/mL
5-MTHF (4 h): 109.7 ng/mL
THF (4 h): 22.4 ng/mL
Total Uptake (4 h): 252.7 ng/mL
SMILES: Nc1nc2ncc(CNc3ccc(C(=O)N[C@@H](CCC(=O)O)C(=O)O)cc3)nc2c(=O)[nH]1 [Folic Acid, pteroylglutamic acid]

— patent US20210393636A1, “TREATMENT OF CNS AND DEVELOPMENTAL DISORDERS USING HIGH DOSE 5-FORMYL-(6S)-TETRAHYDROFOLATE” (priority 2019, published 2021)
